Measurements from publication PMC10673511, “Design, Synthesis and Bioactivity Evaluation of Heterocycle-Containing Mono- and Bisphosphonic Acid Compounds” (Molecules, 2023).
In brackets after ≈: the same amount, converted by molar mass. Like-named read-outs stand apart in the source and are kept apart here.

Experiments:
[1] = molecular target: recombinant E. coli DXR (EcDXR) (Escherichia coli, UniProt P45568); experiment: biochemical; settings: read-out: InR (%) on DXR enzyme
[2] = tested on: Brassica napus L.; experiment: Pre-emergence herbicidal inhibition assay, Petri dish test, BN; assay type: in vivo; settings: for EC50: Brassica napus, 168 h; for Relative activity ratio (BN root) / Relative activity ratio (BN stalk): relative to FOS
Description: (§1) The pre-emergence activity of the compounds against monocot Echinochloa crus-galli (EC) and dicot Brassica napus L. (BN) was evaluated using the standard Petri dish test. The compounds were dissolved in DMF, emulsified with Tween-80 and diluted with water to form stock solutions, each of which was further diluted to a gradient of 100, 50, 25, 10 and 1 mg/L for test. The test solutions were added to Petri dishes lined with a filter paper, on which 10 seeds of EC and BN were placed. After cultured in an intelligent climate chamber with a humidity of 65% at 26 °C for 7 days, the corresponding EC50 values were calculated.

[3] = tested on: Echinochloa crus-galli; experiment: Pre-emergence herbicidal inhibition assay, Petri dish test, EC; assay type: in vivo; settings: for EC50: Echinochloa crus-galli, 168 h; for Relative activity ratio (EC root) / Relative activity ratio (EC stalk): relative to FOS
Description: as §1

[4] = tested on: Arabidopsis thaliana; experiment: Arabidopsis growth inhibition assay (24-well plates, green channel pixel value); settings: Arabidopsis thaliana, 240 h; for EC50: read-out: EC50 against Arabidopsis growth; for pest or weed control at 100 µg/mL: read-out: InR (%) against Arabidopsis
[5] = root, 7 days, read-out: EC50 BN Root
[6] = stalk, 7 days, read-out: EC50 BN Stalk
[7] = root, 7 days, read-out: EC50 EC Root
[8] = stalk, 7 days, read-out: EC50 EC Stalk

recombinant E. coli DXR (EcDXR), sequence (P45568 whole entry): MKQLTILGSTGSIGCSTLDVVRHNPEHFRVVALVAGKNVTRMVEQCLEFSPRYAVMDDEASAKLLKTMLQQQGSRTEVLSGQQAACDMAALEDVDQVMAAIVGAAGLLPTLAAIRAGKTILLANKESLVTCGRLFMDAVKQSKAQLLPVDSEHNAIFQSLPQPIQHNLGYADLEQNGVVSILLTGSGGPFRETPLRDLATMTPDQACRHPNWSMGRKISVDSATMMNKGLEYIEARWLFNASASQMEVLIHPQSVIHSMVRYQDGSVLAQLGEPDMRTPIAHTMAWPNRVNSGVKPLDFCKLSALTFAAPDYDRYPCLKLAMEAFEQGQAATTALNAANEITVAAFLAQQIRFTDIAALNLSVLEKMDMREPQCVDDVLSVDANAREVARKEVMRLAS

SMILES | inhibition at 100 µM [1] [%] | EC50 [2, 5] [µg/mL] | EC50 [2, 6] [µg/mL] | EC50 [3, 7] [µg/mL] | EC50 [3, 8] [µg/mL] | melting point [°C] | EC50 [4] [µg/mL] | pest or weed control at 100 µg/mL [4] [%] | EC50 ([2]; read-out: EC50 BN Root) [µg/mL] | EC50 ([2]; read-out: EC50 BN Stalk) [µg/mL] | EC50 ([3]; read-out: EC50 EC Root) [µg/mL] | EC50 ([3]; read-out: EC50 EC Stalk) [µg/mL] | Relative activity ratio (BN root) [2] [fold] | Relative activity ratio (BN stalk) [2] [fold] | Relative activity ratio (EC root) [3] [fold] | Relative activity ratio (EC stalk) [3] [fold]
Cc1n[nH]c(C)c1CC(P(=O)(O)O)P(=O)(O)O [Compound 12g] | 11.6 | > 100 | 32.9 (≈ 116 µM) | 38.8 (≈ 137 µM) | 31.4 (≈ 111 µM) | > 250 | > 100 | 40.4 |  |  |  |  |  |  |  | 
CCc1noc(CC)c1CC(P(=O)(O)O)P(=O)(O)O [Compound 13h] | 10.3 | 39.2 (≈ 125 µM) | 50.8 (≈ 162 µM) | 48 (≈ 153 µM) | 45.7 (≈ 146 µM) | > 250 | > 100 | 43.2 |  |  |  |  |  |  |  | 
CCCc1n[nH]c(O)c1CC(P(=O)(O)O)P(=O)(O)O [Compound 12c] | 32.3 | 55.1 (≈ 175 µM) | 33.1 (≈ 105 µM) | 68.3 (≈ 217 µM) | 36.4 (≈ 116 µM) | > 250 | > 100 | 49.7 |  |  |  |  |  |  |  | 
O=P(O)(O)C(Cc1c(C(F)F)n[nH]c1O)P(=O)(O)O [Compound 12f] | 6.1 | 15.6 (≈ 48.4 µM) | 22.3 (≈ 69.2 µM) | 36.5 (≈ 113 µM) | 12.6 (≈ 39.1 µM) | 228 to 229 | > 100 | 47 |  |  |  |  |  |  |  | 
Cc1noc(C)c1CCP(=O)(O)O [Compound 6e] | 12.1 |  |  |  |  | > 250 | > 100 | 12.3 | > 100 | 68.4 (≈ 333 µM) | > 100 | 54.1 (≈ 264 µM) |  |  |  | 
CC(C)c1n[nH]c(O)c1CC(P(=O)(O)O)P(=O)(O)O [Compound 12d] | 12.4 | 21.2 (≈ 67.5 µM) | 41.5 (≈ 132 µM) | > 100 | 39.1 (≈ 124 µM) | > 250 | > 100 | 44.8 |  |  |  |  |  |  |  | 
CCCc1onc(O)c1CC(P(=O)(O)O)P(=O)(O)O [Compound 13c] | 28.4 | 27.7 (≈ 87.9 µM) | 46.9 (≈ 149 µM) | 43.9 (≈ 139 µM) | 45.8 (≈ 145 µM) |  | 48.4 ± 5.3 (≈ 154 µM) | 100 |  |  |  |  | 1.3 | 0.7 | 0.9 | 0.8
CCc1noc(CC)c1CCP(=O)(O)O [Compound 6f] | 11.7 | > 100 | > 100 | > 100 | 41.7 (≈ 179 µM) | > 250 | > 100 | 13.4 |  |  |  |  |  |  |  | 
CCc1onc(O)c1CCP(=O)(O)O [Compound 6b] | 19.5 |  |  |  |  |  | > 100 | 46.5 | 70.1 (≈ 317 µM) | 65.8 (≈ 298 µM) | 24.7 (≈ 112 µM) | 36.1 (≈ 163 µM) |  |  |  | 
CCc1n[nH]c(O)c1CC(P(=O)(O)O)P(=O)(O)O [Compound 12b] | 21.9 | 61.6 (≈ 205 µM) | 24.5 (≈ 81.6 µM) | 77.5 (≈ 258 µM) | 55.3 (≈ 184 µM) | > 250 | > 100 | 29.6 |  |  |  |  |  |  |  | 
CCc1n[nH]c(CC)c1CC(P(=O)(O)O)P(=O)(O)O [Compound 12h] | 2.3 | 40.1 (≈ 128 µM) | 22.3 (≈ 71.4 µM) | 44.2 (≈ 142 µM) | 31.1 (≈ 99.6 µM) | > 250 | > 100 | 41.2 |  |  |  |  |  |  |  | 
CC1(C)CON(CCCP(=O)(O)O)C1=O [Compound 19] | 22.5 | 79.3 (≈ 334 µM) | 39.2 (≈ 165 µM) | > 100 | 88 (≈ 371 µM) | > 250 | > 100 | 43.2 |  |  |  |  | 0.4 | 0.8 | 0.4 | 0.4
Cc1n[nH]c(C)c1CCP(=O)(O)O [Compound 5e] | 23 |  |  |  |  | > 250 | > 100 | 15.8 | 63 (≈ 309 µM) | > 100 | > 100 | 59.6 (≈ 292 µM) |  |  |  | 
